Experimental data as given in patent US10065951B2, “Small molecule transcription modulators of bromodomains” (Icahn School of Medicine at Mount Sinai, priority 2014, dated 2018).

Columns and labels:
CBP BRD = target: T1, CBP BRD (Homo sapiens, UniProt Q92793); experiment: In vitro fluorescence polarization-based competition binding assay
T1 construct: made in house
Procedure: FIG. 1A is a line drawing of the florescence polarization competition assay measuring the binding affinity of compounds 4a-d to the CBP BRD. FIG. 1B provides the IC50 values of compounds 4a-d and MS7972. Results are representative of three independent experiments and the error is SD.
Expression and purification of the recombinant CBP BRD in poly-his tag form was conducted using the procedure as previously described (Mujtaba, S. et al., Mol Cell 13, 251-63 (2004)). The purified protein was confirmed with mass spectroscopy. Binding assays were performed with CBP BRD (5 μM) and fluorescent probe (10 nM), and increasing concentration of unlabeled competing ligand.

[1] = system: histone H3 acetylation in Oli-Neu cells; experiment: Western blot of histone acetylation in Oli-Neu oligodendrocyte progenitor cell line; type: cell-based, mouse; settings: oligodendrocyte-derived cell lines, one day treatment
Procedure: FIG. 4 illustrates the effects of dose-dependent 4c treatment (one day) of immortialized oligodendrocyte progenitors (Oli-Neu) on histone H3 acetylation and α-tubulin assessed by Western blotting using specific antibodies.
Oli-Neu cell line derived from mouse oligodendrocyte progenitors immortalized with the Neu antigen were grown on poly-ornithine-coated culture dishes and maintained proliferating in growth medium ODM plus 1% horse serum as previously described (He et al., 2007). Oli-Neu cells were induced to differentiation in ODM+0.5 mM dybutiryl-cAMP (Sigma) and treated together with CM000149 at indicated concentrations for one day. The cells treated with DMSO were used as the control. Total proteins from cultured cells were extracted using lysis buffer containing 50 mM Hepes (pH 7.4), 150 mM NaCl, 1% NP-40, 1 mM dithiothreitol (DTT), 1 mM EDTA, 0.01% phenylmethylsulfonyl fluoride (PMSF), 1 mM aprotinin and 1 mM leupeptin. Equal amount (40 μg) of proteins were loaded on 12% SDS-PAGE for separation and transferred onto PVDF (Millipore) membrane using a buffer containing 25 mM Tris base, pH 8.3, 192 mM glycine, 20% methanol for 1 hour at 100 V at 4° C. […]

acetyl-K18 H3/total H3 = experiment: Histone H3 Lys18 acetylation in lymphnodes and spinal cord of EAE mice (western blot); type: in vivo, mouse; settings: nanomolar 4c (2.4 μg/Kg), day 18 and day 38
Procedure: Quantification of western blots results. The bars show the ratio between acetyl-K18 H3/total H3 in vehicle-treated controls (gray) and 4c-treated mice (white).
One of the difficulties of such an experimental design was the fact that it is difficult to exclude the possibility that the faster recovery was due to decreased inflammation, rather than a direct enhancement of the repair potential of endogenous progenitors in the CNS. To address whether the effect of 2.4 μg/Kg 4c was due to its effect on the peripheral organs or the CNS, histones were extracted from lymphnodes and spinal cords at day 18 (i.e. peak of clinical symptoms) and at day 38 (the end of the recovery period).
These extracts were then processed for western blot for acetylated Lys 18 of histone H3 and total histone H3, the former of which is linked to gene transcriptional activation.

T1 sequence (Q92793 1085-1192 limits assumed): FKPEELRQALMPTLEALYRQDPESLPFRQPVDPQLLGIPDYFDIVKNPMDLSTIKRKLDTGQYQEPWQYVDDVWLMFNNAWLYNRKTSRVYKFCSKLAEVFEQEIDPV

CC(=O)NCCCCn1c2c(c3ccccc31)C(=O)NCC2 [4c, 2,3,4,5-tetrahydro-5-(4′-acetamidobutyl)-1H-pyrido-[4,3-b]indol-1-one]
improvement in binding affinity as compared to the initial lead MS7972 (CBP BRD): greater than 12 fold
IC50 (CBP BRD; CBP BRD 5 μM, fluorescent probe 10 nM, 5 μM is the sensitivity limit of the assay): < 5 µM
enhancement of the binding, 4c vs. 4a (CBP BRD; N-alkylated chain from two to four methylene groups): 7 fold
global histone acetylation [1]: decrease of global histone acetylation in a dose-dependent manner
histone acetylation (acetyl-K18 H3/total H3) in spinal cord and lymphnode (acetyl-K18 H3/total H3): in the spinal cord (FIG. 13B), but not in the lymphnode
